Laboratory results published in ChEMBL document CHEMBL5465560, “Selectivity Literature for EUbOPEN Chemogenomic Library” (2024).

Assays:
[1] = molecular target: Maternal embryonic leucine zipper kinase (Homo sapiens) (UniProt Q14680); assay: Selectivity interaction (Kinase panel (Z-LYTE Assay)) EUB0001632a MELK; conditions: at 10 µM
[2] = molecular target: Rho-associated protein kinase 1 (Homo sapiens) (UniProt Q13464); assay: Selectivity interaction (SelectScreen profiling (Invitrogen)) EUB0000607a ROCK1; conditions: at 2 µM
[3] = molecular target: Calcium/calmodulin-dependent protein kinase kinase 2 (Homo sapiens) (UniProt Q96RR4); assay: Selectivity interaction (ActivX KiNativ screen (kinase selectivity in THP-1 cell lysates)) EUB0000639a CAMKK2; type: subcellular; conditions: lysate, at 5 µM
[4] = molecular target: Serine/threonine-protein kinase 25 (Homo sapiens) (UniProt O00506); assay: Selectivity interaction (Kinase panel (Invitrogen)) EUB0000639a STK25; conditions: at 200 nM
[5] = molecular target: DNA (cytosine-5)-methyltransferase 1 (Homo sapiens) (UniProt P26358); assay: Selectivity interaction (Methyltransferase screen (Scintillation proximity assays)) EUB0000255b DNMT1
[6] = molecular target: Serine/threonine-protein kinase PLK1 (Homo sapiens, UniProt P53350); assay: Selectivity interaction (KinomeScan (DiscoverX)) EUB0000695a PLK1; conditions: at 100 nM
[7] = molecular target: Serine/threonine-protein kinase 24 (Homo sapiens) (UniProt Q9Y6E0); assay: Selectivity interaction (Kinase panel (DSF assay)) EUB0001559a STK24
[8] = molecular target: Mitogen-activated protein kinase 14 (Homo sapiens, UniProt Q16539); assay: Selectivity interaction (Enyzmatic assay) EUB0000601a MAPK14
[9] = molecular target: Receptor tyrosine-protein kinase erbB-2 (Homo sapiens, UniProt P04626); conditions: at 10 µM
[10] = test system: Epidermal growth factor receptor (Homo sapiens), P00533 [UNDEFINED MUTATION]; assay: Selectivity interaction (KinomeScan (DiscoverX)) EUB0000655a EGFR; conditions: at 10 µM
[11] = test system: Mast/stem cell growth factor receptor Kit (Homo sapiens), P10721 [D816H]; assay: (§1) Selectivity interaction (KinomeScan (DiscoverX)) EUB0000045b KIT
[12] = test system: Mast/stem cell growth factor receptor Kit (Homo sapiens), P10721 [L576P]; assay: as §1
[13] = test system: Mast/stem cell growth factor receptor Kit (Homo sapiens), P10721 [D816V]; assay: as §1
[14] = molecular target: Mast/stem cell growth factor receptor Kit (Homo sapiens, UniProt P10721); assay: as §1
[15] = test system: Mast/stem cell growth factor receptor Kit (Homo sapiens), P10721 [V559D,V654A]; assay: as §1
[16] = test system: Mast/stem cell growth factor receptor Kit (Homo sapiens), P10721 [A829P]; assay: as §1
[17] = test system: Mast/stem cell growth factor receptor Kit (Homo sapiens), P10721 [V559D,T670I]; assay: as §1
[18] = test system: Mast/stem cell growth factor receptor Kit (Homo sapiens), P10721 [V559D]; assay: as §1
[19] = molecular target: BMP-2-inducible protein kinase (Homo sapiens) (UniProt Q9NSY1); assay: Selectivity interaction (KinomeScan (DiscoverX)) EUB0001079a BMP2K; conditions: at 1 µM
[20] = molecular target: High affinity nerve growth factor receptor (Homo sapiens, UniProt P04629); assay: Selectivity interaction (KinomeScan (DiscoverX)) EUB0001079a NTRK1; conditions: at 1 µM
[21] = molecular target: Ribosomal protein S6 kinase alpha-2 (Homo sapiens) (UniProt Q15349); assay: Selectivity interaction (Kinome Scan (DiscoverX)) EUB0000229b RPS6KA2; conditions: at 10 µM
[22] = molecular target: Atypical kinase COQ8A, mitochondrial (Homo sapiens, UniProt Q8NI60); assay: Selectivity interaction (KinomeScan (DiscoverX)) EUB0000092b ADCK3; conditions: at 10 µM
[23] = molecular target: T1, Tyrosine-protein kinase JAK3 (Homo sapiens) (UniProt P52333); assay: Selectivity interaction (ActivX KiNativ screen (ex vivo kinase selectivity in human PBMCs)) EUB0001619a JAK3; type: cell-based; conditions: PBMC, at 1 µM
T1 sequence (whole entry): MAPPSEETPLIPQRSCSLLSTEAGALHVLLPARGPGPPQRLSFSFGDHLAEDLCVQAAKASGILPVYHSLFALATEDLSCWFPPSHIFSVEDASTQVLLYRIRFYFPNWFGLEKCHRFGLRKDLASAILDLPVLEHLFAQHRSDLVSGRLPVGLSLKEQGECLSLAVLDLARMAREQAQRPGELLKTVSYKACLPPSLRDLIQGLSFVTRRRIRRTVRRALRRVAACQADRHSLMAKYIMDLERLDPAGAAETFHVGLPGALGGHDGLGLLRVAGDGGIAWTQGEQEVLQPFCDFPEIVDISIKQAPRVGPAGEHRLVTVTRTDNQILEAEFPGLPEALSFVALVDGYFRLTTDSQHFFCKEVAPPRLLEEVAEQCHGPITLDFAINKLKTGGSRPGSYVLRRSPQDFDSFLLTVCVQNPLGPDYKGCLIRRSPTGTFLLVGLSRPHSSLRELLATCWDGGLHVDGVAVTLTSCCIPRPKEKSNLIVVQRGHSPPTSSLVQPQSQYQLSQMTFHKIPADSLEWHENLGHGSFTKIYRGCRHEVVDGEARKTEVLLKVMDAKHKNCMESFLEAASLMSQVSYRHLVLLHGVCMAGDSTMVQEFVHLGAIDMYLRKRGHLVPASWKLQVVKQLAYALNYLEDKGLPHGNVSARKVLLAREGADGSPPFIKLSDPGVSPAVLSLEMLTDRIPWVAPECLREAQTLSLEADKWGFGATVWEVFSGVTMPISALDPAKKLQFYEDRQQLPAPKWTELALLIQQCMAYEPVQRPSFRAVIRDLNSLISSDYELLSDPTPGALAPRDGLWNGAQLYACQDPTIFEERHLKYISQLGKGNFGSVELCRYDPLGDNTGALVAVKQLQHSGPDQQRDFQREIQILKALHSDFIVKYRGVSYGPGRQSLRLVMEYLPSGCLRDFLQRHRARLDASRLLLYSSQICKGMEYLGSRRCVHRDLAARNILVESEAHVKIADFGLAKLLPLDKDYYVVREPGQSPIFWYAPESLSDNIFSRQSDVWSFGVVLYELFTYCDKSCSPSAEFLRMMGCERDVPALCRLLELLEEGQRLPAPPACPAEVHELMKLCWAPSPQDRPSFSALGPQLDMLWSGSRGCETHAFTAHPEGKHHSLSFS

[24] = molecular target: Serine/threonine-protein kinase 24 (Homo sapiens) (UniProt Q9Y6E0); assay: Selectivity interaction (ActivX KiNativ screen (ex vivo kinase selectivity in human PBMCs)) EUB0001619a STK24; type: cell-based; conditions: PBMC, at 1 µM

Chain of Mast/stem cell growth factor receptor Kit (Homo sapiens), P10721 [D816V] (P10721 whole entry D816V): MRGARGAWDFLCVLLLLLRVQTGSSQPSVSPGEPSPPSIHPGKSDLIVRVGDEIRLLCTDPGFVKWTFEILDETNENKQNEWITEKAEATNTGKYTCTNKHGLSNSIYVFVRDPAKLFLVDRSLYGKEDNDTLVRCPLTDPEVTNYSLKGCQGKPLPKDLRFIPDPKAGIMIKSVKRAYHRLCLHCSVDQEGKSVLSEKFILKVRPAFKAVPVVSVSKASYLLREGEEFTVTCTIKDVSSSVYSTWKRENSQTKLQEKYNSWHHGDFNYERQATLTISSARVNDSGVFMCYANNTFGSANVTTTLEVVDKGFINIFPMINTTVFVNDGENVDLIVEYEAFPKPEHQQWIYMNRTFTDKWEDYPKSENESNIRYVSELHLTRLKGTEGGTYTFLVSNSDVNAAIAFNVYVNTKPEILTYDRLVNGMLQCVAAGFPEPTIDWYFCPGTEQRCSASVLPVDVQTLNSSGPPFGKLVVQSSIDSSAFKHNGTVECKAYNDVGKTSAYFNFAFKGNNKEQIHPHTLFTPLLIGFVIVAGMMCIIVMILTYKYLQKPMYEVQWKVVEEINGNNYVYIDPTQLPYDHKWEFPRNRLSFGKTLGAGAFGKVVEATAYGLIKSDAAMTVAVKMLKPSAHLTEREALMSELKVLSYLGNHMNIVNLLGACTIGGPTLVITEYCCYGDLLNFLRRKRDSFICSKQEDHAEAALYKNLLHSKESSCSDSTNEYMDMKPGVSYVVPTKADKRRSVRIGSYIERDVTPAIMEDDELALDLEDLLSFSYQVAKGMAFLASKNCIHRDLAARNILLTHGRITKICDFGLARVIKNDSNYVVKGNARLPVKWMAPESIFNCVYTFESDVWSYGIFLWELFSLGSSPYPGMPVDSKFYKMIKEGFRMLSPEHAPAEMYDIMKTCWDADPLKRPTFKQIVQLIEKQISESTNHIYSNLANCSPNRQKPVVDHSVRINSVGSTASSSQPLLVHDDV
Chain of Mast/stem cell growth factor receptor Kit (Homo sapiens), P10721 [V559D,T670I] (P10721 whole entry V559D/T670I): as the sequence (P10721 whole entry D816V) above, with V559D, T670I, V816D counted along it
Chain of Mast/stem cell growth factor receptor Kit (Homo sapiens), P10721 [V559D,V654A] (P10721 whole entry V559D/V654A): as the sequence (P10721 whole entry D816V) above, with V559D, V654A, V816D counted along it
Chain of Mast/stem cell growth factor receptor Kit (Homo sapiens), P10721 [A829P] (P10721 whole entry A829P): as the sequence (P10721 whole entry D816V) above, with V816D, A829P counted along it
Chain of Mast/stem cell growth factor receptor Kit (Homo sapiens), P10721 [V559D] (P10721 whole entry V559D): as the sequence (P10721 whole entry D816V) above, with V559D, V816D counted along it

Cn1cc(-n2cnc3c(NCc4nc5cc(Cl)c(Cl)cc5[nH]4)nc(N4CCOCC4)nc32)cn1
% of control [1]: 26.9%

CNC(=O)Nc1ccc(-c2nc(N3CC4CCC(C3)O4)c3cnn(C4CCC5(CC4)OCCO5)c3n2)cc1
% of inhibition [2]: -8%

CC[C@@H]1[C@H](F)C(=O)N[C@@H]1COc1nccc2cc(C(N)=O)c(OC)cc12 [ZIMLOVISERTIB]
% of inhibition [3]: 56.9% | % of inhibition [4]: 7.57%

COCCN1CCC(c2cc(CN(C)C(=O)c3cccc(Oc4ccccc4)c3)ccn2)CC1
% activity ([5]; at 1 µM): > 95% | % activity ([5]; at 10 µM): 79%

Cc1cc(F)c(C(=O)Nc2cccc(-c3nncn3C(C)C)n2)cc1-n1cnc(C2CC2)c1
% of control [6]: 100%

CN(C(=O)c1cnn2cccnc12)c1cc2c(cc1N1CCOCC1)C(=O)N(C[C@@H](F)C(C)(C)O)C2
dTM [7]: -0.3 K

CCc1cc(Nc2nccc(-c3c(-c4ccc(OC)c(C(=O)Nc5c(F)cccc5F)c4)nc4ccccn34)n2)c(OC)cc1N1CCC(N2CCN(S(C)(=O)=O)CC2)CC1
IC50 [8]: > 10 µM

COCC(=O)NC/C=C/c1ccc2ncnc(Nc3ccc(Oc4ccc(C)nc4)c(C)c3)c2c1 [CP-724714]
% of control [9]: 0%

CN(C)CCOc1ccc(-c2nc(-c3ccncc3)c(-c3ccc4c(c3)CC/C4=N\O)[nH]2)cc1
% of control [10]: 54%

C=CC(=O)Nc1cc(-n2c(=O)ccc3cnc4ccc(-c5ccc(NS(C)(=O)=O)cc5)cc4c32)ccc1C
% of control ([11]; at 1 µM): 99% | % of control ([11]; at 10 µM): 100% | % of control ([12]; at 1 µM): 100% | % of control ([12]; at 10 µM): 83% | % of control ([13]; at 1 µM): 69% | % of control ([13]; at 10 µM): 73% | % of control ([14]; at 1 µM): 89% | % of control ([14]; at 10 µM): 89% | % of control ([15]; at 1 µM): 100% | % of control ([15]; at 10 µM): 100% | % of control ([16]; at 1 µM): 74% | % of control ([16]; at 10 µM): 81% | % of control ([17]; at 1 µM): 100% | % of control ([17]; at 10 µM): 91% | % of control ([18]; at 1 µM): 87% | % of control ([18]; at 10 µM): 88%

Nc1cnc(N2CCc3cc(S(=O)(=O)Nc4c(F)cc(Cl)cc4F)cc(N4CCCC4=O)c32)nc1 [TP-020n]
% of control [19]: 88% | % of control [20]: 100%

COc1cc(N(C)c2ccnc3ccc(C(F)(F)F)cc23)cc(OC)c1OC
% binding [21]: 74%

CCC(=O)N1CCN(c2ccc(-n3c(=O)ccc4cnc5ccc(-c6cnc7ccccc7c6)cc5c43)cc2C(F)(F)F)CC1
% of control [22]: 17%

N#Cc1cccc(-c2c[nH]c3ncnc(N4CCOCC4)c23)c1
% of inhibition [23]: 7% | % of inhibition [24]: 39%
